Assay results published in patent publication US20080139534A1, “Bisbenzamidines and bisbenzamidoximes for the treatment of human African trypanosomiasis” (XAVIER UNIVERSITY OF LOUISIANA, priority 2006, published 2008).
pIC50: −log10 of the molar value.

Tests used:
[1] = system: T. b. brucei Lab 110 EATRO; assay: In vitro trypanocidal activity, bloodforms in HMI-18 medium, Coulter counts; assay type: cell-based, Trypanosoma brucei brucei; conditions: Trypanosoma brucei; 48 h exposure, bloodforms; read-out: Lab 100 EATRO IC50
Description: (§1) The compounds were tested against trypanosome isolates grown as blood forms in HMI-18 medium containing 20% horse serum in 24 well microplates at 37° C. in 5% CO2. Wells were inoculated with 1×10^5 trypanosomes. […] One-half the volume was replaced daily. Cell counts were made daily with a Coulter Counter, Model Z1 (Beckman Coulter, Miami, Fla., USA). Cells were diluted with Isoton I buffer (Beckman Coulter) and the aperture was standardized at 5.14 μm. Background checks were performed daily on 1:10 dilutions of medium. Counts, normalization, and coincident counts were accounted for by the standardized Coulter analysis program. Occasionally, hemocytometer counts were performed as a check on the validity of the Coulter program. IC50 values were determined after 48 h from semi-log plots and the values are the result of duplicate determinations. Initially a broad concentration curve was used and then a close concentration curve from which IC50 values were determined. Assays were done in duplicate and each point was the average of the two. Control cells grew to 5×10^6/ml.
(§2) Coulter counts were made daily and IC50 values determined after 48 hours exposure.

[2] = system: T. b. rhodesiense KETRI 243; assay: as above; assay type: cell-based, Trypanosoma brucei rhodesiense; conditions: Trypanosoma brucei, RHODESIENSE, 48 h exposure
Description: as §1, §2

calf thymus DNA = assay: Thermal denaturation study, DNA binding affinity (ΔTm); conditions: 1:5 compound to base pair ratio;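 further: shift in midpoint melting temperature of calf thymus DNA thermal denaturation curves caused by compound binding, values averaged over at least two determinations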
Description: (§3) The binding affinity was measured by determining the change in the midpoint (Tm) of the thermal denaturation curves of calf thymus DNA as well as poly(dA-dT) at a 1:5 compound to base pair ratio.

poly(dA-dT) = assay: as above; conditions: 1:5 compound to base pair ratio;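 further: shift in the midpoint temperature of the thermal melting curve of poly(dA-dT), each value the mean of two or more independent determinations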
Description: as §3

[3] = system: T. b. brucei Lab 110 EATRO; assay: In vivo efficacy in infected mice; set-up: species or system Trypanosoma brucei brucei; conditions: mice
Description: Female Swiss-Webster mice (weight, 20 g) were infected (intraperitoneally) with 2.5×10^5 trypanosomes from rat blood, and the infection was allowed to develop for 24 h before drug treatment was begun. Groups of three mice each were injected (intraperitoneally) with each drug concentration. All of the experiments included a group of untreated controls. […] Parasitemia of animals dying of infection averaged 0.5-1.0×10^9/mL of blood. These infections are very predictable and daily counts were not done because of the labor involved. […] Animals were monitored weekly for parasites in tail vein blood smears. Mice were considered cured if they survived more than 30 days after the death of the last control with no parasites in tail vein blood smears. MSD (mean survival in days) was also recorded for each group. It is the average time of survival of the animals in the group, exclusive of cured animals.
Mice were infected with 250,000 parasites and dosing commenced 24 h. post infection. Mice were separated into groups of three and given single i.p doses for 3 days unless otherwise noted. Infected untreated controls were used for each experiment. Mice were considered cured if surviving more than 30 days beyond death of controls without parasites in tail vein blood smears. MSD, mean survival in days, exclusive of cured animals.

[4] = system: T. b. rhodesiense KETRI 2002; assay: In vivo efficacy in infected mice, clinical isolate; set-up: species or system Trypanosoma brucei rhodesiense
Description: (§4) Female Swiss-Webster mice (weight, 20 g) were infected (intraperitoneally) with 2.5×10^5 trypanosomes from rat blood, and the infection was allowed to develop for 24 h before drug treatment was begun. Groups of three mice each were injected (intraperitoneally) with each drug concentration. All of the experiments included a group of untreated controls. […] Animals were monitored weekly for parasites in tail vein blood smears. Mice were considered cured if they survived more than 30 days after the death of the last control with no parasites in tail vein blood smears. MSD (mean survival in days) was also recorded for each group. It is the average time of survival of the animals in the group, exclusive of cured animals.
(§5) Mice were infected on day 1 with 2.5×10^5 trypanosomes and the infections allowed to progress 24 h. prior to dosing. Animals were dosed 1×/day i.p for 3 days. Cured animals survived >30 days beyond the death of untreated, infected controls. MSD=mean survival in days exclusive of cured animals. Dose as mg/kg/day.

[5] = system: T. b. rhodesiense KETRI 2538; assay: as above; set-up: species or system Trypanosoma brucei rhodesiense
Description: as §4, §5

[6] = system: T. b. rhodesiense KETRI 1992; assay: as above; set-up: species or system Trypanosoma brucei rhodesiense
Description: as §4, §5

[7] = 25 mg/kg i.p., single dose (1x)
[8] = KETRI 1992, 5 mg/kg/day i.p. for 3 days
[9] = KETRI 1992, 10 mg/kg/day i.p. for 3 days
[10] = KETRI 1992, 15 mg/kg/day i.p. for 3 days

DNA Binding Δ Tm Poly (dA-dT) (poly(dA-dT)): 14.4 °C
SMILES: N=C(N)c1ccc(NC(=O)CCCCC(=O)Nc2ccc(C(=N)N)cc2)cc1 [compound 0702]
pIC50 [1]: 8.55 | pIC50 [2]: 8.61 | DNA Binding Δ Tm Calf thymus (calf thymus DNA): 8.7 °C | # Cured/#Treated (%) ([3]; 1 mg/kg/day i.p. for 3 days): 0/3 | MSD ([3]; 1 mg/kg/day i.p. for 3 days): 6.7 days | MSD ([3]; 5 mg/kg/day i.p. for 3 days): >30 days | MSD ([3]; 10 mg/kg/day i.p. for 3 days): >30 days | MSD ([3]; 15 mg/kg/day i.p. for 3 days): >30 days | # Cured/#Treated (%) [3, 7]: 0/3 | MSD [3, 7]: 22 days | MSD ([3]; 25 mg/kg/day i.p., 2 doses (2x)): >30 days | MSD ([4]; KETRI 2002, 10 mg/kg/day i.p. for 3 days): >30 days | MSD ([4]; KETRI 2002, 15 mg/kg/day i.p. for 3 days): >30 days | MSD ([4]; KETRI 2002, 25 mg/kg/day i.p. for 3 days): >30 days | MSD ([5]; KETRI 2538, 5 mg/kg/day i.p. for 3 days): >30 days | MSD ([5]; KETRI 2538, 10 mg/kg/day i.p. for 3 days): >30 days | MSD ([5]; KETRI 2538, 15 mg/kg/day i.p. for 3 days): >30 days | #Cured/Total [6, 8]: 0/3 | MSD [6, 8]: 16.5 days | #Cured/Total [6, 9]: 0/3 | MSD [6, 9]: 17.5 days | #Cured/Total [6, 10]: 0/3 | MSD [6, 10]: 22 days
